Assay results published in patent US20040082503A1, “Methods for treatment of diabetes using peptide analogues of insulin” (Neurocrine Biosciences, Inc., priority 1998, published 2004).
Values joined by “and” are separate entries in the source; they are usually repeats but may differ in a detail not shown here. Identical values can stand only once.

What was measured:
[1] = system: Murine NOD T cell clone PD12-2.40 response to insulin B chain (9-23) peptide; experiment: Antagonism of T cell proliferation assay, clone PD12-2.40; type: cell-based, mouse (NOD); conditions: for % Inhibition: N/A = no inhibition observed
Procedure: Peptide analogues of B chain (9-23) containing alanine substitutions at residue 12, 13, 15 or 16 or the doubly substituted peptide at positions 16 and 19 (A^16,19; NBI-6024) were prepared as described in Example 1. T cell antagonism was detected by evaluating the ability of the peptide analogues to inhibit T cell proliferation induced by native B chain (9-23) (SEQ ID NO:2). In this assay, antigen presenting cells were first irradiated and then incubated with the competing peptide analogue and the native B chain (9-23) peptide. T cells were then added to the culture. Various concentrations of candidate peptide analogues were included in cultures which were incubated for a total of 4 days. Following this incubation period, each culture was pulsed with 1 μCi of [^3H]-thymidine for an additional 12-18 hours. Cultures were then harvested on fiberglass filters and counted as above. Mean CPM and standard error of the mean were calculated from data determined in triplicate cultures.
Within Table 4, the control peptide, NBI-5096, is an unrelated peptide from myelin basic protein. The percent inhibition was calculated as: (1−experimental cpm/insulin peptide cpm)×100%.

[2] = system: Insulin B chain (9-23) specific mouse (NOD) T cell clones; experiment: Proliferation of insulin-specific NOD T cell clones (summary over clones); type: cell-based; conditions: four NOD derived T cell clones; 50 μM peptide
Procedure: (§1) Insulin specific NOD T cell lines were established by culturing lymphocytes isolated from islet-infiltrating populations by in vitro stimulation with either porcine insulin at 25 μg/ml and irradiated NOD islet cell in the presence of irradiated NOD spleen cells as antigen presenting cells and cytokines. To obtain the infiltrating lymphocytes the following procedures were performed (see Wegmann et al., Eur. J. Immunol. 24:1853, 1994): the pancreas from the NOD mouse was digested with collagenase and individual islets were isolated manually. The infiltrating lymphocytes were then obtained by mild trypsin digestion of the islets. The insulin specific T cell lines or clones were propagated by serial stimulation in the presence of NOD spleen cells, porcine insulin and lymphokines. Clones were obtained by limiting dilution of the B chain (9-23) specific T cell lines in the presence of the antigen presenting cells and porcine insulin at 25 μg/ml. Wells with a growing population of cells following limiting dilution were expanded in appropriate medium, and after one cycle of growth were tested for reactivity to the B chain (9-23) peptide of insulin by evaluating the proliferative response.
(§2) Insulin B chain (9-23) (SEQ ID NO:2) specific mouse (NOD) T cell clones were isolated from infiltrated islets as described in Example 2. Peptide analogues with single alanine substitutions were prepared as described in Example 1. The effect of each analogue on T cell proliferation was then evaluated using an assay performed in 96-well flat bottom microtiter plates (see Daniel et al., Eur. J. Immunol. 25:1056, 1995). Briefly 25,000 T cell clones along with 1 million irradiated NOD spleen cells were cultured in the presence of 50 μg/ml of insulin B chain 9-23 peptide or any of the alanine substituted peptides listed below in triplicate sets. The plates were incubated for a total of 72 hours in 7% carbon dioxide atmosphere with a pulse of 1 μCi/well of tritiated thymidine for the last 6-8 hours of culture. Cells were harvested on a glass fiber filter and the associated radioactivity was counted in a liquid scintillation counter. Results are expressed as mean counts per minute of triplicate wells.
(§3) NOD T cell clones were incubated in the presence of 50 μM of either the native B chain (9-23) peptide or NBI-6024. The data in Table 3 represent the mean of triplicate sample±standard error of the mean. Within Table 3, S.I. (Stimulation Index)=proliferation (cpm) in the presence of the peptide/proliferation (cpm) in medium alone.

[3] = system: Insulin B chain (9-23) specific murine T cell clone PD12-4.1; experiment: Proliferation of insulin B chain (9-23) specific murine T cell clone PD12-4.1; type: cell-based, mouse (NOD); conditions: clone PD12-4.1, 50 μM peptide, Exp. 1; for S.I. (Stimulation Index): cpm with peptide/cpm in medium alone
Procedure: as §1, §2, §3

[4] = system: Insulin B chain (9-23) specific murine T cell clone PD12-4.9; experiment: Proliferation of insulin B chain (9-23) specific murine T cell clone PD12-4.9; type: cell-based, mouse (NOD); conditions: clone PD12-4.9, 50 μM peptide, Exp. 1 and 2; for S.I. (Stimulation Index): cpm with peptide/cpm in medium alone
Procedure: as §1, §2, §3

[5] = system: Insulin specific NOD T cell clone PD12-2.40; experiment: Proliferation of insulin-specific NOD T cell clone PD12-2.40; type: cell-based, mouse (NOD); conditions: for S.I. (Stimulation Index): clone PD12-2.40, 50 μM peptide, cpm with peptide/cpm in medium alone, Exp. 1 and 2
Procedure: as §1, §2, §3

[6] = system: Insulin B chain (9-23) specific murine T cell clone PD12-2.35; experiment: Proliferation of insulin B chain (9-23) specific murine T cell clone PD12-2.35; type: cell-based, mouse (NOD); conditions: clone PD12-2.35, 50 μM peptide, Exp. 1 and 2; for S.I. (Stimulation Index): cpm with peptide/cpm in medium alone
Procedure: as §1, §2, §3

[7] = system: NOD mice (spontaneous diabetes); experiment: Reduction of incidence of diabetes in NOD mice; type: in vivo, NOD mouse
[8] = B(9-23) 5 μM + 10 μM competing peptide
[9] = B(9-23) 5 μM + 50 μM competing peptide
[10] = listed as Insulin B Chain (9-23)

For “NBI-6024: insulin B chain 9-23 with alanine substitutions at positions 16 and 19 (SHLVEALALVAGERG)”, the “CPM ± SEM” value [1, 8] was 6,379 ± 1,485 CPM, the “% Inhibition” value [1, 8] was 30.0% and the “CPM ± SEM” value [1, 9] was 4,305 ± 941 CPM. For the same substance, the “% Inhibition” value [1, 9] was 52.9%, the “Proliferative response over medium only (background)” value [2] was “little or no proliferation over medium only (background)” and the “Proliferative response, Mean cpm ± sem” value [3] was 566 ± 30 cpm. For the same substance, the “S.I. (Stimulation Index)” value [3] was 2.63, the “Proliferative response, Mean cpm ± sem” value [4] was 12,313 ± 1,372 cpm and 6,171 ± 725 cpm and the “S.I. (Stimulation Index)” value [4] was 1.35 and 0.85. For the same substance, the “S.I. (Stimulation Index)” value [5] was 1.01 and 1.16, the “Proliferative response, Mean cpm ± sem” value [6] was 841 ± 88 cpm and 452 ± 179 cpm and the “S.I. (Stimulation Index)” value [6] was 1.22 and 0.91. The “Reduction of the incidence of diabetes compared to the untreated group” value ([7]; female NOD mice, 20 mg/kg (400 μg/mouse) s.c. weekly for 12 weeks then every other week until Week 35, p<0.004, FIG. 11) was 60-70% and the “Incidence of diabetes compared to neurotensin treated or untreated group” value ([7]; second experiment, NOD mice, 20 mg/kg s.c., FIG. 12) was “reduced incidence of diabetes”.
For “Native 9-23: native peptide, residues 9-23 of human insulin B chain (SEQ ID NO:2) (SHLVEALYLVCGERG; Residues 9-23 of human insulin B chain; listed as Homo sapiens) [reference compound]”, the “CPM ± SEM” value ([1]; B(9-23) 5 μM alone, medium only 305 ± 13) was 9,149 ± 1,062 CPM, the “Proliferative response over medium only (background)” value [2] was “significant response” and the “Proliferative response, Mean cpm ± sem” value [3] was 28,593 ± 4664 cpm. The “S.I. (Stimulation Index)” value [3] was 132.99, the “Proliferative response, Mean cpm ± sem” value [4, 10] was 45,541 ± 5,222 cpm and 65,624 ± 4,979 cpm and the “S.I. (Stimulation Index)” value [4, 10] was 4.99 and 9.1. The “Response (cpm) of T cell clone PD12-2.40” value ([5]; 50 μg/ml peptide, 72 h, 3H-thymidine, no antigen 682 cpm) was 32221 cpm, the “S.I. (Stimulation Index)” value [5, 10] was 96.16 and 98.4 and the “Proliferative response, Mean cpm ± sem” value [6, 10] was 120,886 ± 7,171 cpm and 100,521 ± 1,581 cpm. For the same substance, the “S.I. (Stimulation Index)” value [6, 10] was 175.7 and 203.89 and the “Incidence of diabetes (percent of mice diabetic)” value ([7]; NOD mice, 400 μg s.c. weekly, 13 treatments, neurotensin as control, FIG. 10) was “reduced the incidence of diabetes”.
